# Source: patent publication US20220348569A1 (priority 2021, published 2022)
# Entries after “also recorded” stand apart in the source; their conditions may differ. Like-named read-outs stand apart in the source and are kept apart here.
# Tests used:
# SARS-CoV pseudovirus [1] = experiment: microbe, parasite or virus in culture; type: cell-based; conditions: Severe acute respiratory syndrome coronavirus, HT-1080
# SARS-CoV pseudovirus [2] = experiment: microbe, parasite or virus in culture; type: cell-based; conditions: Severe acute respiratory syndrome coronavirus, A549-ACE2
# in vivo = conditions: female, rat; for AUC(0-t): Sprague Dawley
# [3] = system: SARS-CoV-2 full Spike wild-type (Wuhan-Hu-1) mediated cell-to-cell fusion; experiment: cells; type: cell-based; conditions: for inhibition at 0.25 µM: Severe acute respiratory syndrome coronavirus 2, Jurkat, at 250 nM, read-out: inhibitory activity of SARS-CoV-2 mediated cell-to-cell fusion
# SARS-CoV-2 pseudovirus [4] = experiment: microbe, parasite or virus in culture; type: cell-based; conditions: for IC50: Severe acute respiratory syndrome-related coronavirus, read-out: IC50s against SARS-CoV-2 pseudovirus over the cell lines
# SARS-CoV pseudovirus [5] = experiment: microbe, parasite or virus in culture; type: cell-based; conditions: Severe acute respiratory syndrome coronavirus, 293T/ACE2
# MERS-CoV pseudovirus [6] = experiment: microbe, parasite or virus in culture; type: cell-based; conditions: Middle East respiratory syndrome-related coronavirus, Huh-7
# MERS-CoV pseudovirus [7] = experiment: microbe, parasite or virus in culture; type: cell-based; conditions: Middle East respiratory syndrome-related coronavirus, MRC5
# [8] = molecular target: SARS-CoV-2 spike (active trimer) His-tag (Severe acute respiratory syndrome coronavirus 2, UniProt P0DTC2); type: binding
# [9] = system: SARS-CoV-2 (US_WA-1/2020); type: cell-based
# [10] = rat, in vivo
# in vitro [11] = conditions: human
# MERS-CoV pseudovirus [12] = experiment: microbe, parasite or virus in culture; type: cell-based; conditions: Middle East respiratory syndrome-related coronavirus, read-out: IC50 against MERS-CoV pseudovirus
# SARS-CoV-2 pseudovirus [13] = experiment: microbe, parasite or virus in culture; type: cell-based; conditions: Severe acute respiratory syndrome-related coronavirus, A549-ACE2
# SARS-CoV pseudovirus [14] = type: cell-based
# in vitro [15] = conditions: human; remark: listed apart in the source
# in vitro [16] = conditions: human; remark: listed apart in the source
# in vitro [17] = conditions: human, Caco-2, pH 7.4
# [18] = both, human, microsomes
# in vitro [19] = conditions: both, human, plasma
# [20] = female, Sprague Dawley, iv, 5 mg/kg
structure (smiles),measurement,setting,value
O=C(O)c1cccc(-c2ccc(/C=C3\SC(=S)N(CCc4ccccc4)C3=O)o2)c1 [Compound 2],IC50,SARS-CoV pseudovirus [1],19.3 to 39 nM
same,IC50,SARS-CoV pseudovirus [2],98 to 157 nM
same,AUC(0-t),"in vivo; iv, 5 mg/kg",17100 ng·h/mL
same,AUC(0-t),"in vivo; po, 10 mg/kg",319 ng·h/mL
same,half-life,"in vivo; Sprague-Dawley, iv, 5 mg/kg",210 to 234 min
same,inhibition of SARS-CoV-2 mediated cell-to-cell fusion (in words),[3],potently inhibited the cell-to-cell fusion even at the lowest dose
same,inhibition at 0.25 µM,[3],62 to 79%
same,antiviral activity against SARS-CoV-2 pseudovirus (in words),SARS-CoV-2 pseudovirus [4],low nanomolar activity; also recorded: best antiviral potency; also recorded: low nM IC50
same,IC50,SARS-CoV-2 pseudovirus [4],22.8 to 58 nM
same,IC50,SARS-CoV pseudovirus [5],13.8 to 17 nM
same,IC50,MERS-CoV pseudovirus [6],95 to 158 nM
same,IC50,MERS-CoV pseudovirus [7],76.5 to 123 nM
same,ka,[8],872 M⁻¹ s⁻¹
same,IC100,[9],1.25 µM
same,C0,[10]; [20],1710.87 ng/mL
same,CLobs,[10]; [20],0.00027 mg/kg/(ng/mL)/hr
same,MRT0-inf_obs,[10]; [20],5.09 h
same,Vss_obs,[10]; [20],0.0014 mg/kg/(ng/mL)
same,Vss_obs,"[10]; female, Sprague Dawley, po, 10 mg/kg",0 mg/kg/(ng/mL)
same,F %,"[10]; female, Sprague-Dawley",0.9%
same,MRT0-inf_obs,"[10]; female, Sprague-Dawley, po, 10 mg/kg",7.28 h
same,Vz/F_obs,"[10]; po, 10 mg/kg",0.1759 mg/kg/(ng/mL)
O=C(O)c1cc(-c2ccc(/C=C3\SC(=S)N(CCc4ccccc4)C3=O)o2)ccc1F [Compound 3],IC50,SARS-CoV pseudovirus [1],19.3 to 39 nM
same,CC50,in vitro [11],45 ± 5 µM
same,IC50,SARS-CoV pseudovirus [2],98 to 157 nM
same,antiviral activity against SARS-CoV-2 pseudovirus (in words),SARS-CoV-2 pseudovirus [4],somewhat reduced activity
same,"selectivity index (SI, ratio CC50/IC50) over the cell lines",SARS-CoV-2 pseudovirus [4],750->1563
same,IC50,SARS-CoV-2 pseudovirus [4],60.1 to 120 nM
same,IC50,SARS-CoV pseudovirus [5],13.8 to 17 nM
same,IC50,MERS-CoV pseudovirus [6],95 to 158 nM
same,IC50,MERS-CoV pseudovirus [7],76.5 to 123 nM
same,IC100,[9],2.5 µM
Cc1ccc(-c2ccc(/C=C3\SC(=S)N(CCc4ccccc4)C3=O)o2)cc1C(=O)O [Compound 4],inhibition of SARS-CoV-2 mediated cell-to-cell fusion (in words),[3],potently inhibited the cell-to-cell fusion even at the lowest dose
same,inhibition at 0.25 µM,[3],62 to 79%
same,antiviral activity against SARS-CoV-2 pseudovirus (in words),SARS-CoV-2 pseudovirus [4],low nanomolar activity; also recorded: excellent antiviral activity
same,IC50,SARS-CoV-2 pseudovirus [4],26 to 73 nM
same,IC50,MERS-CoV pseudovirus [6],95 to 158 nM
same,IC50,MERS-CoV pseudovirus [7],76.5 to 123 nM
same,IC100,[9],2.5 µM
Cc1c(C(=O)O)cccc1-c1ccc(/C=C2\SC(=S)N(CCc3ccccc3)C2=O)o1 [Compound 5],inhibition of SARS-CoV-2 mediated cell-to-cell fusion (in words),[3],only inhibited the SARS-CoV-2 mediated cell-to-cell fusion at the higher dose (4 μM)
same,IC50,MERS-CoV pseudovirus [12],> 2000 nM
same,IC50,SARS-CoV-2 pseudovirus [13],> 2000 nM
same,activity against SARS-CoV pseudovirus (in words),SARS-CoV pseudovirus [14],poor activity
same,IC100,[9],>10 µM
CCc1ccc(-c2ccc(/C=C3\SC(=S)N(CCc4ccccc4)C3=O)o2)cc1C(=O)O [Compound 6],CC50,in vitro [11],40 ± 6 µM
same,IC50,MERS-CoV pseudovirus [12],< 1000 nM
same,antiviral activity against SARS-CoV-2 pseudovirus (in words),SARS-CoV-2 pseudovirus [4],slightly lower antiviral activity
same,IC100,[9],>10 µM
O=C(O)c1cccc(-c2ccc(/C=C3\SC(=S)N(CCc4ccccc4)C3=O)o2)c1F [Compound 7],IC50,MERS-CoV pseudovirus [12],< 1000 nM
same,IC100,[9],5 µM
O=C(O)c1cc(-c2ccc(/C=C3\SC(=S)N(CCc4ccccc4)C3=O)o2)ccc1Br [Compound 8],IC50,MERS-CoV pseudovirus [12],< 1000 nM
same,antiviral activity against SARS-CoV-2 pseudovirus (in words),SARS-CoV-2 pseudovirus [4],excellent antiviral activity
same,IC100,[9],5 µM
Cc1c(C(=O)O)cncc1-c1ccc(/C=C2\SC(=S)N(CCc3ccccc3)C2=O)o1 [Compound 9],IC100,[9],2.5 µM
"O=C1C(=Cc2ccc(-c3ccc(Cl)cc3)o2)SC(=S)N1CCc1ccccc1 [Compound 10, 5-((5-(4-chlorophenyl)furan-2-yl)methylene)-3-phenethyl-2-thioxothiazolidin-4-one]",antiviral activity against SARS-CoV-2 pseudovirus (in words),SARS-CoV-2 pseudovirus [4],no antiviral potency at the highest dose tested
same,IC50,SARS-CoV-2 pseudovirus [4],> 2000 nM
NS(=O)(=O)c1ccc(-c2ccc(/C=C3\SC(=S)N(CCc4ccccc4)C3=O)o2)cc1 [Compound 11],CC50,in vitro [11],13.3 ± 2 µM
same,IC50,MERS-CoV pseudovirus [6],13.2 ± 3.7 nM
O=C1NC(=S)S/C1=C\c1ccc(-c2ccc(Cl)c(C(=O)O)c2)o1 [Compound 12],antiviral activity against SARS-CoV-2 pseudovirus (in words),SARS-CoV-2 pseudovirus [4],did not display any activity at the highest dose tested
CCN1C(=O)/C(=C/c2ccc(-c3cccc(C(=O)O)c3)o2)SC1=S [Compound 13],CC50,in vitro [11],74 ± 3 µM
same,CC50,in vitro [15],> 100 µM
COCCN1C(=O)/C(=C/c2ccc(-c3ccc(Cl)c(C(=O)O)c3)o2)SC1=S [Compound 14],CC50,in vitro [11],81 ± 1 µM
same,CC50,in vitro [15],> 100 µM
CN1C(=O)/C(=C/c2ccc(-c3cccc(C(=O)O)c3)o2)SC1=S [Compound 15],CC50,in vitro [11],53 ± 8 µM
same,CC50,in vitro [15],> 100 µM
O=C1/C(=C/c2ccc(-c3ccccc3)o2)SC(=S)N1CCc1ccccc1 [Compound 16],CC50,in vitro [11],75 ± 7 µM
same,CC50,in vitro [15],40 ± 2 µM
C=CCN1C(=O)/C(=C/c2ccc(-c3cccc(C(=O)O)c3)o2)SC1=S [Compound 17],CC50,in vitro [11],> 100 µM
same,CC50,in vitro [15],> 100 µM
O=C(O)c1cc(-c2ccc(/C=C3\SC(=S)N(C4CCCCC4)C3=O)o2)ccc1Cl [Compound 18],CC50,in vitro [11],> 100 µM
same,CC50,in vitro [16],> 100 µM
same,antiviral activity against SARS-CoV-2 pseudovirus (in words),SARS-CoV-2 pseudovirus [4],excellent antiviral activity; also recorded: low nM IC50
same,CC50,in vitro [15],> 100 µM
same,IC50,MERS-CoV pseudovirus [6],10.5 ± 0.9 nM
C=CCN1C(=O)/C(=C/c2ccc(-c3cc(C(=O)O)cc(C(=O)O)c3)o2)SC1=S [Compound 19],CC50,in vitro [11],> 100 µM
same,CC50,in vitro [15],> 100 µM
C=CCN1C(=O)/C(=C/c2ccc(-c3cccc(C(=O)O)c3C)o2)SC1=S [Compound 20],CC50,in vitro [11],> 100 µM
same,CC50,in vitro [16],84 ± 4 µM
same,CC50,in vitro [15],> 100 µM
same,IC50,MERS-CoV pseudovirus [6],340 ± 112 nM
O=C1NC(=S)S/C1=C\c1ccc(-c2ccc(C(=O)O)c(Cl)c2)o1 [Compound 21],CC50,in vitro [11],> 100 µM
same,CC50,in vitro [15],> 100 µM
Cc1ccc(-c2ccc(/C=C3\SC(=S)N(CC(C)C)C3=O)o2)cc1C(=O)O [Compound 22],CC50,in vitro [11],68 ± 4 µM
same,CC50,in vitro [15],70 ± 4 µM
C#CCN1C(=O)/C(=C/c2ccc(-c3ccc(Cl)c(C(=O)O)c3)o2)SC1=S [Compound 23],antiviral activity against SARS-CoV-2 pseudovirus (in words),SARS-CoV-2 pseudovirus [4],did not display any activity at the highest dose tested
CCN1C(=O)/C(=C/c2ccc(-c3ccc(Cl)c(C(=O)O)c3)o2)SC1=S [Compound 24],CC50,in vitro [11],78 ± 3 µM
same,CC50,in vitro [16],~100 µM
same,CC50,in vitro [15],> 100 µM
same,IC50,MERS-CoV pseudovirus [6],88 ± 13 nM
O=C(O)c1cccc(-c2ccc(/C=C3\SC(=S)N(C4CCCCC4)C3=O)o2)c1 [Compound 25],CC50,in vitro [11],> 100 µM
same,CC50,in vitro [16],> 100 µM
same,antiviral activity against SARS-CoV-2 pseudovirus (in words),SARS-CoV-2 pseudovirus [4],displayed antiviral potency
same,CC50,in vitro [15],> 100 µM
same,IC50,MERS-CoV pseudovirus [6],247 ± 47 nM
N=C1NC(=O)/C(=C/c2ccc(-c3ccc(Cl)c(C(=O)O)c3)o2)S1 [Compound 26],CC50,in vitro [11],> 100 µM
CN1C(=O)/C(=C/c2ccc(-c3cccc(C(=O)O)c3)o2)SC1=S [Compound 27],CC50,in vitro [16],> 100 µM
same,IC50,MERS-CoV pseudovirus [6],96 ± 14 nM
O=C1NC(=S)S/C1=C\c1ccc(-c2ccc(C(=O)O)cc2)o1 [Compound 28],antiviral activity against SARS-CoV-2 pseudovirus (in words),SARS-CoV-2 pseudovirus [4],loses the inhibitory activity; also recorded: showed no inhibition
CC(C)NCC(O)COc1cccc2ccccc12 (centres unmarked) [Propranolol],Papp,in vitro [17],19.7 ×10⁻⁶ cm/s
"C[C@]12CC[C@H]3[C@@H](CCC4=CC(=O)CC[C@@]43C)[C@@H]1CC[C@@H]2O [Testosterone, reference compound]",half-life,[18],11.3 min
CC(=O)CC(c1ccccc1)c1c(O)c2ccccc2oc1=O (centres unmarked) [Warfarin],fraction unbound,in vitro [19],0.018
